{
  "source": "paper PMC13621370",
  "about": "“Targeting Telomere Shelterin Protein TPP1 with Elbasvir: Induction of Autophagy and Suppression of Esophageal Cancer Tumorigenesis” (Anti-Cancer Agents in Medicinal Chemistry, 2025)",
  "target": "T1, telomere shelterin protein TPP1 (Homo sapiens, UniProt Q96AP0)",
  "T1 construct": "gene ACD; endogenous protein in RIPA lysate of KYSE150 and TE1 cells; not purified; 2I46 used only for docking",
  "T1 sequence (Q96AP0 1-458)": "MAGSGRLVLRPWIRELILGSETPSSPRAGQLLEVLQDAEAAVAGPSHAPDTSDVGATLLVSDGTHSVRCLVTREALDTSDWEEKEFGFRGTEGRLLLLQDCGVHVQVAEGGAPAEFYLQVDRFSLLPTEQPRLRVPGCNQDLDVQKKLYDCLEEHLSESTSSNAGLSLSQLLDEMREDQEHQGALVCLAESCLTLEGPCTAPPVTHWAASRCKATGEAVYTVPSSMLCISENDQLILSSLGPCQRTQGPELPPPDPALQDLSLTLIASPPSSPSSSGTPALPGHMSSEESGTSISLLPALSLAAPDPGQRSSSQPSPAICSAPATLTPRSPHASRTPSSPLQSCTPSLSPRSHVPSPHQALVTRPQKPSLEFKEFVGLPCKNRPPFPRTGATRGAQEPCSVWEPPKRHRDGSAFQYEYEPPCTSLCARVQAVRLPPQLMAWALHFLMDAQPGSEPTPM",
  "assay": "DARTS (pronase protection, Western blot of TPP1)",
  "type": "biochemical",
  "conditions": "400 uM Elbasvir, cell lysate, ambient temperature, 2 h, then pronase 20 min",
  "data": [
    {"compound": "COC(=O)N[C@H](C(=O)N1CCC[C@H]1c1ncc(-c2ccc3c(c2)O[C@@H](c2ccccc2)n2c-3cc3cc(-c4cnc([C@@H]5CCCN5C(=O)[C@@H](NC(=O)OC)C(C)C)[nH]4)ccc32)[nH]1)C(C)C", "note": "[Elbasvir]", "values": [
      {"measurement": "DARTS (pronase protection, Western blot of TPP1)", "value": "the presence of Elbasvir increased the stability of TPP1 protein, protecting it from proteolysis"}
    ]}
  ]
}
